Laboratory results published in patent US20170183318A1, “AMIDE COMPOUNDS, METHODS FOR PREPARATION, AND USE THEREOF AS AGENTS FOR THE TREATMENT AND PREVENTION OF DISEASES CAUSED BY RNA- AND/OR DNA-CONTAINING VIRUSES, AND CONCOMITANT DISEASES” (OBSCHESTVO S OGRANICHENNOI OTVETSTVENNOSTIYU …, priority 2014, published 2017).
Read-outs that look alike come from different tables or passages of the source. Starred links: 1 amine or outer side, 2 acyl side, 3 side chain; linkers in the order of their positions; H or OH if unused. Non-standard residues stand in square brackets, D forms with d. Residues, ends and D or L forms follow the SMILES beside them. ξ: configuration not given here. Glutaryl = O=C(CCCC(=O)[*:2])[*:1]; ξH = NC(Cc1c[nH]cn1)C(=O)O

Legend:
[1] = test system: Coxsackie A2 virus (strain HCXV A2); experiment: Antiviral activity against Coxsackie virus in vivo (mortality and life expectancy of infected mice); conditions: for inhibition in vivo at 30 mg/kg / mortality at 30 mg/kg: Mus musculus, po; for inhibition in vivo at 30 mg/kg: 168 h, read-out: Protective index (%); for mortality at 30 mg/kg: 360 h, read-out: Total mortality, %; for Average life expectancy (days), Compared with control: difference vs virus control; for Average life expectancy (days), Relative: mice infected with 10LD50 HCXV A2
Procedure: In the study a trypsin-dependent strain HCXV A2 was used, previously adapted and causing death in mice from Coxsackie virus infection.
The experiment was carried out in white mice weighing 6 to 7 g. The animals were infected intramuscularly with a dose of 0.1 mL/mouse. The used infectious dose causing mortality in mice was 10LD50.
The ability of compounds to provide a therapeutic effect was determined by the mortality rate of HCXV A2 virus-infected mice in the experimental group relative to the group of untreated animals.
The studied compounds and placebo were administered orally according to the treatment regimen. Normal saline solution was administered to mice as placebo. Intact animals served as a negative control and were hold in a separate room under the same conditions as the experimental animals.
For the experiment, groups were formed with 14-15 animals each. Compounds were administered at a dose of 30 mg/kg of body weight. The studied compounds were administered orally once daily for 7 days (first administration was made 24 hours after infection). The animals were monitored for 15 days during which the animals were weighed and the mortality rate was registered every day.

[2] = test system: human respiratory syncytial virus (strain A2); experiment: Antiviral activity against RS virus in a murine model of suppressed immune system (lung edema); type: in vivo; conditions: Balb/c mice, cyclophosphan-suppressed, RS-virus pneumonia; 30 mg/kg once daily for 5 days; M ± SD, n = 5; scores from possible 4
Procedure: Antiviral activity of the chemical compounds against human respiratory syncytial virus (strain A2, an infectious titer of 5×10^6 TCID50/mL) was assessed in a Balb/c murine model of viral pneumonia. The virus was inoculated to animals intranasally in a volume of 50 μL under brief ether anesthesia. The immune response in animals to RS virus was suppressed by intraperitoneal administration of cyclophosphan at a dose of 100 mg/kg 5 days before infection. The studied compounds were administered according to the treatment regimen once daily at a dose of 30 mg/kg for 5 days, starting 24 hours after infection. The activity of the compounds was determined by a reduction in edema of the lung infected with respiratory syncytial virus, compared to the control, on day 5 after infection.

human virus hRSV = experiment: Antiviral activity against mouse-adapted RS virus (body weight; viral titer in lungs titrated in Hep-2 cells); type: in vivo, mice; conditions: for hRSV in the lungs of mice, Day 5, lg / hRSV in the lungs of mice, Day 7, lg: 10% lung suspension titrated in Hep-2 cells (TCID); for hRSV in the lungs of mice, Day 5, lg / Body weight of the mice on day 5 after infection with hRSV (M ± SD) / hRSV in the lungs of mice, Day 7, lg / Body weight of the mice on day 7 after infection with hRSV (M ± SD): compounds 30 mg/kg, Ribavirin 40 mg/kg; for Body weight of the mice on day 5 after infection with hRSV (M ± SD) / Body weight of the mice on day 7 after infection with hRSV (M ± SD): orally once daily for 5 days, n = 6; for log reduction at 30 mg/kg: human respiratory syncytial virus, HEp-2, po
Procedure: Antiviral effectiveness of the chemical compounds against RSV in an experimental murine model in vivo was determined for human virus hRSV that was previously adapted to the growth in mouse lungs. The animals were infected with the virus at a dose of 0.5 log TCID50 intranasally under brief ether anesthesia in a volume of 0.05 ml/mouse. The studied compounds were administered orally once daily for 5 days according to the treatment regimen at a dose of 30 mg/kg. The first administration was made 24 hours after infection. Normal saline solution was administered to mice as placebo. Intact animals served as a negative control and were hold in a separate room under the same conditions as the experimental animals. Each experimental group comprised 12 animals.
The antiviral activity of the studied compounds was determined by the efficiency in the prevention of weight loss and by suppression of the reproduction of hRSV in the mouse lungs by measuring a viral titer in the experimental groups relative to the control on days 5 and 7 after infection.
In addition, the therapeutic action of the compounds of general formula I was determined by their ability to suppress the reproduction of hRSV in the mouse lungs on days 5 and 7 after infection. The viral titer was determined by the titration of a 10% lung suspension in Hep-2 cell culture. The result was registered 2 days after the incubation at 37° C. by TCID.

[3] = 30 mg/kg orally once daily for 7 days
[4] = 120 h, read-out: Suppression of the reproduction of hRSV in the lungs of mice, Day 5, Δlg
[5] = 168 h, read-out: Suppression of the reproduction of hRSV in the lungs of mice, Day 7, Δlg
[6] = 30 mg/kg orally once daily for 7 days, vs virus control

Structure (SMILES)	mortality at 30 mg/kg [1] [%]	Average life expectancy (days), Compared with control [1, 3]	Average life expectancy (days), Relative [1, 3] [days]	Degree of lung edema on day 5 after infection, score [2] [score]	inhibition in vivo at 30 mg/kg [1, 6] [%]	also measured
O=C(O)CCCC(=O)NCCc1ccc[nH]1 [Compound 14]	50	+10.4 days	21.4	–	–	inhibition in vivo at 30 mg/kg [1]: 36%
COC(=O)C(NC(=O)C(Cc1cnc[nH]1)NC(=O)CCCC(=O)O)C(C)O (stereo not drawn) [Compound 148] (Glutaryl-His-Thr-OMe; configuration not given here)	–	–	–	2.00 ± 0.31	–	–
NC(=O)CNC(=O)C(Cc1c[nH]cn1)NC(=O)CCCC(=O)O (stereo not shown) [Compound 184] (Glutaryl-[ξH]-Gly-NH2)	–	–	–	1.00 ± 0.19	–	–
O=C(O)CCCC(=O)NCCc1cncs1 [Compound 122]	–	–	–	–	–	hRSV in the lungs of mice, Day 5, lg (human virus hRSV): 3.04 ± 0.44 lg; Body weight of the mice on day 5 after infection with hRSV (M ± SD) (human virus hRSV): 16.93 ± 0.32; hRSV in the lungs of mice, Day 7, lg (human virus hRSV): 1.75 ± 0.41 lg; Body weight of the mice on day 7 after infection with hRSV (M ± SD) (human virus hRSV): 16.37 ± 0.21; log reduction at 30 mg/kg (human virus hRSV; [4]): 1.56 ± 0.44; log reduction at 30 mg/kg (human virus hRSV; [5]): 1.88 ± 0.47
CC(C)(CCC(=O)NC(Cc1c[nH]cn1)C(=O)O)C(=O)O (stereo not shown) [Compound 75]	35.7	+14.3 days	27.3	–	50	–
CN(CCc1cnc[nH]1)C(=O)CCCC(=O)O [Compound 117]	–	–	–	–	–	hRSV in the lungs of mice, Day 5, lg (human virus hRSV): 3.00 ± 0.41 lg; Body weight of the mice on day 5 after infection with hRSV (M ± SD) (human virus hRSV): 16.07 ± 0.12; hRSV in the lungs of mice, Day 7, lg (human virus hRSV): 1.46 ± 0.24 lg; Body weight of the mice on day 7 after infection with hRSV (M ± SD) (human virus hRSV): 16.48 ± 0.28; log reduction at 30 mg/kg (human virus hRSV; [4]): 1.6 ± 0.41; log reduction at 30 mg/kg (human virus hRSV; [5]): 2.22 ± 0.34
O=C(O)CCCC(=O)OCCc1cnc[nH]1 [Compound 71]	35.7	+16.4 days	28.6	–	44	–
O=C(O)CCCC(=O)NCCc1cccnn1 [Compound 13]	46.7	+8.3 days	19.0	–	36	–
CC(C)C(NC(=O)C(Cc1cnc[nH]1)NC(=O)CCCC(=O)O)C(N)=O (stereo not drawn) [Compound 90] (Glutaryl-His-Val-NH2; configuration not given here)	35.7	+15.1 days	25.9	–	50	–
O=C(O)CCCC(=O)NCCCc1ccco1 [Compound 32]	42.9	+10.0 days	22.2	–	33	–
COC(=O)C(C)NC(=O)C(Cc1cnc[nH]1)NC(=O)CCCC(=O)O (stereo not shown) [Compound 91]	–	–	–	0.40 ± 0.11	–	–
O=C(O)CCCC(=O)NCCC1CCNC1 (stereo not shown) [Compound 1]	–	–	–	1.3 ± 0.27	–	hRSV in the lungs of mice, Day 5, lg (human virus hRSV): 2.88 ± 0.59 lg; Body weight of the mice on day 5 after infection with hRSV (M ± SD) (human virus hRSV): 16.43 ± 0.14; hRSV in the lungs of mice, Day 7, lg (human virus hRSV): 1.46 ± 0.17 lg; Body weight of the mice on day 7 after infection with hRSV (M ± SD) (human virus hRSV): 17.98 ± 0.26; log reduction at 30 mg/kg (human virus hRSV; [4]): 1.73 ± 0.59; log reduction at 30 mg/kg (human virus hRSV; [5]): 2.34 ± 0.17
O=C(O)CCCC(=O)NCCc1ccc(Cl)nc1 [Compound 36]	53.3	+6.0 days	16.7	–	27	–
O=C(O)CCCC(=O)NCCc1cnon1 [Compound 29]	35.7	+13.7 days	26.7	–	50	–
O=C(O)CCCC(=O)NCCc1cn2ccccc2n1 [Compound 139]	–	–	–	1.75 ± 0.77	–	–
NC(=O)C(CO)NC(=O)C(Cc1cnc[nH]1)NC(=O)CCCC(=O)O (stereo not drawn) [Compound 96] (Glutaryl-His-Ser-NH2; configuration not given here)	–	–	–	0.35 ± 0.11	–	–
O=C(O)CCCC(=O)NCCC1=NCCN1 [Compound 3]	–	–	–	1.6 ± 0.89	–	hRSV in the lungs of mice, Day 5, lg (human virus hRSV): 3.04 ± 0.42 lg; Body weight of the mice on day 5 after infection with hRSV (M ± SD) (human virus hRSV): 16.65 ± 0.28; hRSV in the lungs of mice, Day 7, lg (human virus hRSV): 1.46 ± 0.17 lg; Body weight of the mice on day 7 after infection with hRSV (M ± SD) (human virus hRSV): 17.32 ± 0.25; log reduction at 30 mg/kg (human virus hRSV; [4]): 1.56 ± 0.42; log reduction at 30 mg/kg (human virus hRSV; [5]): 2.18 ± 0.28
CC(CCC(=O)O)C(=O)NCCc1c[nH]cn1 (stereo not shown) [Compound 30]	60	+2.4 days	13.1	–	18	–
COC(=O)C(NC(=O)C(Cc1cnc[nH]1)NC(=O)CCCC(=O)O)C(C)C (stereo not drawn) [Compound 89] (Glutaryl-His-Val-OMe; configuration not given here)	53.3	+7.0 days	17.7	0.75 ± 0.17	27	–
O=C(O)CCCC(=O)NCCC1COCCN1 (stereo not shown) [Compound 10]	–	–	–	–	–	Body weight of the mice on day 5 after infection with hRSV (M ± SD) (human virus hRSV): 16.18 ± 0.29; Body weight of the mice on day 7 after infection with hRSV (M ± SD) (human virus hRSV): 16.53 ± 0.20
O=C(O)CCCC(=O)NCCC1CNCCN1 (stereo not shown) [Compound 8]	–	–	–	–	–	Body weight of the mice on day 5 after infection with hRSV (M ± SD) (human virus hRSV): 15.18 ± 0.18; Body weight of the mice on day 7 after infection with hRSV (M ± SD) (human virus hRSV): 17.13 ± 0.27
O=C(O)CCCC(=O)NCCc1ncccn1 [Compound 12]	40	+14.2 days	24.9	–	45	–
O=C(O)CCCC(=O)NCCCc1ccccn1 [Compound 35]	53.3	+5.9 days	16.6	1.48 ± 0.17	27	–
